Test results: patent US8748466B2, “Isoxazole derivatives useful as antibacterial agents” (Pfizer Inc., priority 2011, dated 2014)
In brackets after ≈: the same amount, converted by molar mass. Like-named read-outs stand apart in the source and are kept apart here.

Legend:
[1] = system: Acinetobacter baumannii/haemolyticus: Multidrug-resistant clinical isolate AB-3167; assay: MIC determination (CLSI), AB-3167; format: cell-based; conditions: overnight incubation, duplicate, lower of the two values reported
Method: (§1) The in vitro antibacterial activity of compounds described in the Examples was evaluated by minimum inhibitory concentration (MIC) testing according to Clinical and Laboratory Standards Institute (CLSI). See: Clinical and Laboratory Standards Institute. Methods for Dilution Antimicrobial Susceptibility Tests for Bacteria that Grow Aerobically; Approved Standard-Eighth Edition. CLSI document M7-A8 [ISBN 1-56238-689-1]. Clinical and Laboratory Standards Institute, 940 West Valley Road, Suite 1400, Wayne, Pa. 19087-1898 USA, 2006; also Clinical and Laboratory Standards Institute. Performance Standards for Antimicrobial Susceptibility Testing; Twentieth Informational Supplement. CLSI document M100-S20 [ISBN1-56238-716-2]. Clinical and Laboratory Standards Institute.
(§2) The MIC determination is a standard laboratory method for evaluating the antibacterial activity of a compound. The MIC represents the lowest drug concentration that inhibits visible growth of bacteria following overnight incubation. […] Typically, the drug concentration range is broken down into 2-fold increments (e.g., 0.06 μg/mL, 0.12 μg/mL. 0.25 μg/mL, 0.50 μg/mL, 1.0 μg/mL, etc.) and the various drug concentrations are all individually incubated overnight with approximately the same number of bacteria. The MIC is then determined by visually inspecting the drug effect at each concentration, and identifying the lowest drug concentration that has inhibited bacterial growth as compared to the drug free control. Typically, bacteria continue to grow at drug concentrations lower than the MIC and don't grow at concentrations at and above the MIC.
(§3) The MIC values described in Tables 4 and 5 below were derived from assays wherein each test compound was evaluated in duplicate. In cases where the duplicate values varied by 0-2-fold, the lower of the two values was reported below. Generally speaking, if the duplicate values varied by more than 2-fold, the assay was considered non-valid and was repeated until the variation between duplicate runs was 2-fold. In line with the CLSI guidelines referred to above, both control organisms and reference compounds were utilized in each MIC assay to provide proper quality control. MIC values generated with these control organisms and reference compounds were required to fall within a defined range for the assay to be considered valid and be included herein. Those skilled in the art will recognize that MIC values can and do vary from experiment to experiment. Generally speaking, it should be recognized that MIC values often vary +/−2-fold from experiment to experiment. While a single MIC is reported for each compound and each microorganism, the reader should not conclude that each compound was only tested once. Several of the compounds were subjected to multiple tests. The data reported in Tables 4 and 5 is reflective of the compound's relative activity and different MICs may have been generated on these occasions in line with the guidelines described above.
(§4) The following bacterial strains were used in these MIC determinations:
3) Acinetobacter baumannii/haemolyticus: Multidrug-resistant clinical isolate labeled as AB-3167 in Tables 4 and 5;

[2] = biological target: T1, Pseudomonas aeruginosa LpxC enzyme (Pseudomonas aeruginosa, UniProt P47205); assay: LpxC enzyme IC50 assay (PA LpxC enzyme IC50), BioTrove RapidFire mass spectrometry; format: biochemical
T1 construct: made in house; host or cells: E. coli
T1 sequence (P47205 1-303): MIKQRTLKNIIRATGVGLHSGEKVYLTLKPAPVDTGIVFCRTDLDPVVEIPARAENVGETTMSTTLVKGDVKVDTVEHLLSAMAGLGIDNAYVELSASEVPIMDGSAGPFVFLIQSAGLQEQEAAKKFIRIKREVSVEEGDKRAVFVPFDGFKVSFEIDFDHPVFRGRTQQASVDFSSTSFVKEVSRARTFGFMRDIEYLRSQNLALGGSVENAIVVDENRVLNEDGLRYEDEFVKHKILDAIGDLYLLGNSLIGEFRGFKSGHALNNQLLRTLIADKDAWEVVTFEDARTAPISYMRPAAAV
Method: In order to assess the compounds biological activity selected in vitro assays were conducted on selected compounds. One of the assays measured the compounds ability to disrupt the synthesis of lipopolysaccharide, LPS, which is a component of the outer membrane of Gram-negative bacteria. Disruption of this synthesis is lethal to the bacteria. The assay determined the compound's ability to inhibit LpxC, which is the first enzyme in the biosynthetic pathway for LPS (measured as IC50). Additionally, MICs (minimal inhibitory concentrations) were determined for several bacteria. The specific protocols are described below:
A) IC50 Assay LpxC Enzyme from P. aeruginosa Labeled as PA LpxC Enzyme IC50):
At the end of 1 hour, 5 ul of 1 N HCl was added to stop the enzyme reaction, the plates were centrifuged, and then processed with the BioTrove Rapidfire HTMS Mass Spectrometry System. A no-enzyme control was used in calculating the IC50 values from the percent conversion values.

[3] = system: Escherichia coli EC-1: VOGEL, mouse virulent; assay: MIC determination (CLSI), EC-1; format: cell-based; conditions: read-out: EC-1 MIC
Method: as §1, §2, §3, §4
2) Escherichia coli EC-1: VOGEL, mouse virulent labeled as EC-1 in Tables 4 and 5;

[4] = system: Pseudomonas aeruginosa UC12120 (mouse virulent); assay: MIC determination (CLSI), PA-UC12120; format: cell-based; conditions: UC12120, read-out: PA-UC12120 MIC
Method: as §1, §2, §3, §4
1) Pseudomonas aeruginosa UC12120 (mouse virulent) labeled as PA-UC12120 in Tables 4 and 5;

[5] = P. aeruginosa LpxC enzyme 0.1 nM, 25° C., 1 hour, pH 8.0, read-out: PA:IC50

Row | Compound | MIC [1] [µg/mL] | IC50 [2, 5] [nM] | MIC [3] [µg/mL] | MIC [4] [µg/mL] | IC50 [2] [nM]
1 | CC(CCc1cc(-c2cccc(F)c2)no1)(C(=O)NO)S(C)(=O)=O (racemic) [Example 34, 4-[3-(3-fluorophenyl)isoxazol-5-yl]-N-hydroxy-2-methyl-2-(methylsulfonyl)butanamide] | > 64 | 9.3 | 32 (≈ 89.8 µM) | 2 (≈ 5.61 µM) | –
2 | CC(CCc1cc(-c2ccccc2F)on1)(C(=O)NO)S(C)(=O)=O (racemic) [Example 8, 4-[5-(2-fluorophenyl)isoxazol-3-yl]-N-hydroxy-2-methyl-2-(methylsulfonyl)butanamide] | > 64 | – | 16 (≈ 44.9 µM) | 1 (≈ 2.81 µM) | 8.3
3 | CC(CCc1cc(-c2c(Cl)cccc2Cl)on1)(C(=O)NO)S(C)(=O)=O (racemic) [Example 10, 4-[5-(2,6-dichlorophenyl)isoxazol-3-yl]-N-hydroxy-2-methyl-2-(methylsulfonyl)butanamide] | > 64 | 10.5 | 8 (≈ 19.6 µM) | 64 (≈ 157 µM) | –
4 | COc1ccc(-c2cc(CCC(C)(C(=O)NO)S(C)(=O)=O)on2)cc1 (racemic) [Example 47, N-hydroxy-4-[3-(4-methoxyphenyl)isoxazol-5-yl]-2-methyl-2-(methylsulfonyl)butanamide] | > 64 | 4.1 | 16 (≈ 43.4 µM) | 1 (≈ 2.71 µM) | –
5 | CCOC(=O)N(Cc1cc(CCC(C)(C(=O)NO)S(C)(=O)=O)no1)C(C)C (racemic) [Example 23, ethyl ({3-[4-(hydroxyamino)-3-methyl-3-(methylsulfonyl)-4-oxobutyl]isoxazol-5-yl}methyl)isopropylcarbamate] | > 64 | > 100 | > 64 | > 64 | –
6 | CCOC(C)(C)c1cc(CCC(C)(C(=O)NO)S(C)(=O)=O)on1 (racemic) [Example 31, 4-[3-(1-ethoxy-1-methylethyl)isoxazol-5-yl]-N-hydroxy-2-methyl-2-(methylsulfonyl)butanamide] | > 64 | > 100 | > 64 | > 64 | –
7 | CC(CCc1cc(COCc2ccccc2)on1)(C(=O)NO)S(C)(=O)=O (racemic) [Example 9, 4-{5-[(benzyloxy)methyl]isoxazol-3-yl}-N-hydroxy-2-methyl-2-(methylsulfonyl)butanamide] | > 64 | 25.1 | > 64 | 8 (≈ 20.9 µM) | –
8 | COc1ccc(-c2cc(CC[C@](C)(C(=O)NO)S(C)(=O)=O)on2)c(F)c1 [Example 3, (2R)-4-[3-(2-fluoro-4-methoxyphenyl)isoxazol-5-yl]-N-hydroxy-2-methyl-2-(methylsulfonyl)butanamide] | > 64 | – | 4 (≈ 10.4 µM) | 0.5 (≈ 1.29 µM) | 4.4
9 | CC(CCc1cc(-c2cccc(Cl)c2Cl)on1)(C(=O)NO)S(C)(=O)=O (racemic) [Example 30, 4-[5-(2,3-dichlorophenyl)isoxazol-3-yl]-N-hydroxy-2-methyl-2-(methylsulfonyl)butanamide] | > 64 | – | 4 (≈ 9.82 µM) | 1 (≈ 2.46 µM) | 2.7
10 | CC(CCc1cc(-c2ccc(F)c(F)c2)no1)(C(=O)NO)S(C)(=O)=O (racemic) [Example 41, 4-[3-(3,4-difluorophenyl)isoxazol-5-yl]-N-hydroxy-2-methyl-2-(methylsulfonyl)butanamide] | > 64 | 6.8 | 16 (≈ 42.7 µM) | 2 (≈ 5.34 µM) | –
11 | Cc1ccc(-c2cc(CCC(C)(C(=O)NO)S(C)(=O)=O)on2)cc1 (racemic) [Example 38, N-hydroxy-2-methyl-4-[3-(4-methylphenyl)isoxazol-5-yl]-2-(methylsulfonyl)butanamide] | > 64 | – | 8 (≈ 22.7 µM) | 1 (≈ 2.84 µM) | 2.9
12 | Cc1cc(-c2cc(CCC(C)(C(=O)NO)S(C)(=O)=O)no2)ccc1OC(F)F (racemic) [Example 22, 4-{5-[4-(difluoromethoxy)-3-methylphenyl]isoxazol-3-yl}-N-hydroxy-2-methyl-2-(methylsulfonyl)butanamide] | > 64 | 1.5 | 8 (≈ 19.1 µM) | 1 (≈ 2.39 µM) | –
13 | CCCCSC(=O)N(C)Cc1cc(CCC(C)(C(=O)NO)S(C)(=O)=O)no1 (racemic) [Example 14, S-butyl ({3-[4-(hydroxyamino)-3-methyl-3-(methylsulfonyl)-4-oxobutyl]isoxazol-5-yl}methyl)methylthiocarbamate] | > 64 | > 100 | > 64 | > 64 | –
14 | CC(CCc1cc(-c2ccc(N3CCOCC3)c(F)c2)no1)(C(=O)NO)S(C)(=O)=O (racemic) [Example 48, 4-[3-(3-fluoro-4-morpholin-4-ylphenyl)isoxazol-5-yl]-N-hydroxy-2-methyl-2-(methylsulfonyl)butanamide] | > 64 | 24.2 | 32 (≈ 72.5 µM) | 32 (≈ 72.5 µM) | –
15 | CC(CCc1cc(-c2cccc(F)c2)on1)(C(=O)NO)S(C)(=O)=O (racemic) [Example 21, 4-[5-(3-fluorophenyl)isoxazol-3-yl]-N-hydroxy-2-methyl-2-(methylsulfonyl)butanamide] | > 64 | – | 32 (≈ 89.8 µM) | 4 (≈ 11.2 µM) | 6.8
16 | CCCCNC(=O)OCc1cc(CCC(C)(C(=O)NO)S(C)(=O)=O)no1 (racemic) [Example 25, {3-[4-(hydroxyamino)-3-methyl-3-(methylsulfonyl)-4-oxobutyl]isoxazol-5-yl}methyl butylcarbamate] | > 64 | > 100 | > 64 | > 64 | –
17 | CC(CCc1cc(-c2cnc3ccccc3c2)no1)(C(=O)NO)S(C)(=O)=O (racemic) [Example 40, N-hydroxy-2-methyl-2-(methylsulfonyl)-4-(3-quinolin-3-ylisoxazol-5-yl)butanamide] | – | 25.2 | – | – | –
18 | COc1ccccc1OCc1cc(CCC(C)(C(=O)NO)S(C)(=O)=O)no1 (racemic) [Example 12, N-hydroxy-4-{5-[(2-methoxyphenoxy)methyl]isoxazol-3-yl}-2-methyl-2-(methylsulfonyl)butanamide] | > 64 | 37.4 | > 64 | > 64 | –
19 | CC(CCc1cc(-c2ccc(F)cc2F)on1)(C(=O)NO)S(C)(=O)=O (racemic) [Example 28, 4-[5-(2,4-difluorophenyl)isoxazol-3-yl]-N-hydroxy-2-methyl-2-(methylsulfonyl)butanamide] | – | 2.8 | – | – | –
20 | CC(CCc1cc(-c2ccnc3ccccc23)no1)(C(=O)NO)S(C)(=O)=O (racemic) [Example 46, N-hydroxy-2-methyl-2-(methylsulfonyl)-4-(3-quinolin-4-ylisoxazol-5-yl)butanamide] | – | 5.4 | – | – | –
